Test results published in patent US6399654B1, “Biflavanoids and derivatives thereof as antiviral agents” (priority 1995, dated 2002).
Converted amounts (≈) assume the structure as drawn. Where two headings read alike, the source gives them in different places. Marks after values point to notes of the source that are not given here.

Legend:
[1] = tested on: Influenza A (H1N1) Texas/36/91; experiment: microbe, parasite or virus in culture; format: cell-based, influenza A virus; details: Influenza A virus, read-out: CPE Inhibition EC50
[2] = tested on: Influenza A (H1N1) Texas/36/91; experiment: microbe, parasite or virus in culture; format: cell-based, influenza A virus; details: Influenza A virus, read-out: Neutral Red EC50
[3] = tested on: Influenza A (H3N2) Beijing/32/92; experiment: microbe, parasite or virus in culture; format: cell-based, influenza A virus; details: Influenza A virus, read-out: CPE Inhibition EC50
[4] = tested on: Influenza A (H3N2) Beijing/32/92; experiment: microbe, parasite or virus in culture; format: cell-based, influenza A virus; details: Influenza A virus, read-out: Neutral Red EC50
Influenza B Panama/45/90 [5] = experiment: microbe, parasite or virus in culture; format: cell-based; details: Influenza B virus, MDCK; Influenza B Panama/45/90; read-out: CPE Inhibition EC50
Measles Virus [6] = experiment: microbe, parasite or virus in culture; format: cell-based; details: Measles morbillivirus
Measles Virus [7] = experiment: Measles virus neutral red dye uptake in BSC-1 cells; format: cell-based; details: Measles morbillivirus, BSC-1
Adenovirus Type 5 [8] = experiment: microbe, parasite or virus in culture; format: cell-based; details: Human mastadenovirus C, A549, read-out: CPE Inhibition EC50
Adenovirus Type 5 [9] = experiment: Adenovirus type 5 neutral red dye uptake in A549 cells; format: cell-based; details: Human mastadenovirus C, A549; Adenovirus Type 5; read-out: Neutral Red EC50
[10] = tested on: Parainfluenza Type 3 Virus; experiment: organism not typed; format: cell-based
[11] = tested on: Parainfluenza Type 3 Virus; experiment: organism not typed; format: cell-based; details: MA104, read-out: Neutral Red EC50
[12] = tested on: Respiratory Syncytial Virus; experiment: microbe, parasite or virus in culture; format: cell-based
[13] = tested on: Respiratory Syncytial Virus; experiment: microbe, parasite or virus in culture; format: cell-based; details: human respiratory syncytial virus, MA104; read-out: Neutral Red EC50
HIV-1 RT = target: T1, HIV-1 RT (Human immunodeficiency virus type 1 group M subtype B, UniProt P03366); experiment: Anti-HIV-1 RT assay (recombinant enzyme); format: biochemical; details: for inhibition at 200 µg/mL: read-out: Anti-HIV-1 RT % Inhibition at 200 μg/ml
T1 construct: made in house; host or cells: Escherichia coli

HIV-1 (strain LAV-1) = experiment: microbe, parasite or virus in culture; format: cell-based; details: for EC50: Human immunodeficiency virus 1, PBMC, human PBM cells infected with HIV-1 (strain LAV), read-out: Ant-HIV-1 in PBM cells EC50
[14] = tested on: Madin Darby canine kidney (MDCK) cells
in vitro [15] = details: dog
in vitro [16] = details: dog, Neutral Red IC50 (cytotoxic)
in vitro [17] = details: human
in vitro [18] = details: African green monkey, Neutral Red IC50 (cytotoxic)
in vitro [19] = details: human; remark: listed apart in the source
in vitro [20] = details: human; remark: listed apart in the source
HCMV = HCMV CPE inhibition in HFF cells
HSV-1 = HSV-1 CPE inhibition in HFF cells
HSV-2 = HSV-2 CPE inhibition in HFF cells
VZV = VZV plaque reduction assay in HFF cells
[21] = Cytotoxicity by neutral red dye uptake, A549 cells; details: human, A549 cells (toxicity control wells)
[22] = Cytotoxicity by neutral red dye uptake, MA-104 cells; details: African green monkey, MA-104 cells (toxicity control wells), Neutral Red IC50 (cytotoxic), Respiratory Syncytial Virus test
Hepatitis B Virus (HBV) = experiment: Inhibition of HBV replication in 2.2.15 cells, extracellular (virion) HBV DNA; details: Hepatitis B virus, 216 h;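 note: extracellular virion HBV DNA in culture medium measured by slot blot hybridization with a 32P-labeled HBV probe, quantified against HBV DNA standards, after 9 days of daily dosing, compared with day 0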
Protocol: Test compounds were added daily for a nine continuous day period; the culture medium was collected and stored for analysis of extracellular (virion) HBV DNA after 0, 3, 6, and 9 days of treatment. The treated cells were lysed 24 hours following day 9 of treatment for the analysis of intracellular HBV genomic forms. The overall levels of HBV DNA (both extracellular and intracellular DNA) and the relative rate of HBV replication (intracellular DNA) were analyzed quantitatively. The analysis was performed using blot hybridization techniques and [^32P]-labeled HBV-specific probes. The HBV DNA levels were measured by comparison to known amounts of HBV DNA standards applied to every nitrocellulose membrane (gel or slot blot). An AMBIS beta scanner, which measures the radioactive decay of the hybridized probes directly from the nitrocellulose membranes, was used for the quantitative analysis. Standard curves, generated by multiple analyses, were used to correlate CPM measurements made by the beta scanner with relative levels of target HBV DNA. The levels of HBV virion DNA released into the culture medium were analyzed by a slot blot hybridization procedure. HBV DNA levels were then compared to those at day 0 to determine the effect of the test compound. A known positive drug was evaluated in parallel with test compounds in each test.
Determination of therapeutic concentrations (EC50 and EC90) and toxicity concentrations (IC50) were determined as previously described (90). Stock solutions of text drugs were prepared in DMSO. Culture medium was changed daily and analyzed for extracellular HBV DNA after nine days of continuous drug exposure. Extracellular HBV DNA was extracted from the culture media and analyzed by a slot blot hydridization technique, using a ^32P-labeled Eco RI HBV DNA fragment, as previously described (91), and quantitated via comparison to HBV standards on a nitrocellulose filter, using an AMBIS beta scanner. Toxicity was determined by measuring inhibition of neutral red dye uptake. […] Effective concentration values for individual agents are the mean of six cultures per concentration point. Toxicity values are the mean of three cultures per concentration point.

[23] = Cytotoxicity in uninfected PHA-stimulated human PBM cells; details: human
human PBM cells = experiment: as above
Influenza B Panama/45/90 [24] = experiment: microbe, parasite or virus in culture; format: cell-based; details: Influenza B virus, MDCK, read-out: Neutral Red EC50
[25] = tested on: Influenza A (A/NWS/33 (H1N1)); experiment: Influenza A virus infection in mice; format: in vivo, BALB/c mice
Protocol: Animals: Female 13-15 g specific pathogen-free BALB/c mice were obtained form Simonsen Laboratories (Gilroy, Calif.). They were quarantined 24 h prior to use, and maintained on Wayne Lab Blox and tap water. After being infected, their drinking water contained 0.006% oxytetracycline (Pfizer, New York, N.Y.) to control possible secondary bacterial infections.
Virus: A/NWS/33 (H1N1) was obtained from K. W. Cochran, Univ. of Michigan (Ann Arbor, Mich.). A virus pool was prepared in MDCK cells; this was titrated in mice, ampuled, and stored at −80° C. until used.
Compounds: Robustaflavone was stored at room temperature until used. Ribavirin, used as a positive control, was obtained from ICN Pharmaceuticals (Costa Mesa, Calif.). Vehicles considered included DMSO (Sigma Chemical Co., St. Louis, Mo.), DMF (Sigma), PEG M. W. 200 (Aldrich Chemical Co. Milwaukee, Wis.), 0.4% CMC (Sigma) and 1-methyl-2-pyrrolidinone (MPD, Aldrich).
Arterial Oxygen Saturation (SaO2) Determinations: SaO2 was determined using the Ohmeda Blox 3740 pulse oximeter (Ohmeda, Louisville, Ohio)). The ear probe attachment was used, the probe placed on the thigh of the animal, with the slow instrument mode selected. Readings were made after a 30 second stabilization time on each animal. Use of this device for measuring effects of influenza virus on arterial oxygen saturation have been described.^72
Lung Virus Determinations: Each mouse lung was homogenized and varying dilutions assayed in triplicate for infectious virus in MDCK cells as described previously.^73
4. Effect of robustaflavone in CMC or in DMSO on influenza virus infection in mice. In the study with CMC, robustaflavone was used in dosages of 200 and 100 mg/kg/day; using DMSO vehicle, the dosages were 75 and 37.5 mg/kg/day, with the compound administered i.p. twice daily for 5 days beginning 4 h pre-virus exposure. The mice were used in each dose to monitor effects on SaO2 and death; from an additional group of similarly infected and treated mice, 3 animals were killed on days 3, 5, 7 and 9 to assay for lung score (0=normal, 4=maximal consolidation), weight, and virus titer. Three to four mice were used as toxicity controls, which were weighed prior to treatment and again 18 h after treatment termination, and deaths noted daily. […] Three sets of virus controls were used: Infected-untreated, infected-treated with CMC only, and infected-treated with DMSO only. Twenty animals were used in each of these control groups to monitor SaO2 and death, with 3 additional mice taken in parallel with treated animals to determine effects on lung consolidation and virus titer. Two sets of normal controls were used; one group of three mice was weighed and held in parallel with the toxicity controls. From the second group three mice were killed on days 3 and 9 for comparison of lung score and weight.
Statistical Evaluation: Increase in survivor number was evaluated using chi square analysis with Yates' correction. Mean survival time increases, virus titer and SaO2 value differences were analyzed by t-test. Lung consolidation scores were evaluated by ranked sum analysis.

in vitro [26] = details: African green monkey
in vitro [27] = details: African green monkey; remark: listed apart in the source
in vitro [28] = details: African green monkey; remark: listed apart in the source
[29] = MDCK, Influenza A (H1N1) Texas/36/91
[30] = MDCK, Influenza A (H3N2) Beijing/32/92
[31] = Anti-HIV-1 RT IC50, values in parentheses or in words
[32] = HIV-1 RT IC50 (50% inhibition dose)
[33] = ribavirin in saline, 75 mg/kg/day i.p. bid × 5
[34] = CPE Inhibition IC50 (cytotoxic)

O=c1cc(-c2ccc(O)c(-c3c(O)cc(O)c4c(=O)cc(-c5ccc(O)cc5)oc34)c2)oc2cc(O)cc(O)c12 [Amentoflavone (1), amentoflavone]
EC50 [1, 29]: 3.1 µg/mL (≈ 5.76 µM)
EC50 [2, 29]: 5.3 µg/mL (≈ 9.84 µM)
EC50 [3, 30]: 4.3 µg/mL (≈ 7.99 µM)
EC50 [4, 30]: 6.5 µg/mL (≈ 12.1 µM)
EC50 (Influenza B Panama/45/90 [5]): 0.56 µg/mL (≈ 1.04 µM)
EC50 (Measles Virus [6]; BSC-1, Measles Virus, read-out: CPI Inhibition EC50): < 40 µg/mL
EC50 (Measles Virus [7]): < 20 µg/mL
EC50 (Adenovirus Type 5 [8]): > 100 µg/mL
EC50 (Adenovirus Type 5 [9]): > 100 µg/mL
EC50 ([10]; MA104, Parainfluenza Type 3 Virus, read-out: CPI Inhibition EC50): > 100 µg/mL
EC50 [11]: ~32 µg/mL (≈ 59.4 µM)
EC50 ([12]; human respiratory syncytial virus, MA104; read-out: CPE Inhibition EC50): ~10 µg/mL (≈ 18.6 µM)
EC50 [13]: ~21 µg/mL (≈ 39 µM)
IC50 (HIV-1 RT; [31]): 119 µM
IC50 (HIV-1 RT; [32]): 119 µM
inhibition at 200 µg/mL (HIV-1 RT): 97.3%
EC50 (HIV-1 (strain LAV-1)): > 10.9 µM
CPE Inhibition IC50 (cytotoxic) ([14]; Influenza A (H3N2) test): >100 µg/mL
IC50 (in vitro [15]; CPE Inhibition IC50 (50% cell inhibitory (cytotoxic) concentration), Influenza A (H1N1) test): 22 µg/mL (≈ 40.9 µM)
IC50 (in vitro [15]; CPE Inhibition IC50 (cytotoxic), Influenza A (H3N2) test): > 100 µg/mL
IC50 (in vitro [15]; CPE Inhibition IC50 (cytotoxic), Influenza B test): 100 µg/mL (≈ 186 µM)
IC50 (in vitro [16]; Influenza A (H1N1) test): > 100 µg/mL
IC50 (in vitro [16]; Influenza A (H3N2) test): > 100 µg/mL
IC50 (in vitro [17]): 18 µg/mL (≈ 33.4 µM)
IC50 (in vitro [18]): ~56 µg/mL (≈ 104 µM)
IC50 (in vitro [19]): 35 µM
CC50 at 14 days (in vitro [20]; HCMV CPE Inhibition CC50): > 100 µg/mL
CC50 at 3 days (in vitro [20]; HSV-1 CPE Inhibition CC50): > 100 µg/mL
CC50 at 3 days (in vitro [20]; HSV-2 CPE Inhibition CC50): > 100 µg/mL
CC50 at 10 days (in vitro [20]; VZV Plaque Reduction CC50): 9.3 µg/mL (≈ 17.3 µM)
HCMV SI (CC50/EC50) (HCMV; HFF Cells): >1.9
EC50 (HCMV; Human betaherpesvirus 5, HFF, read-out: HCMV CPE Inhibition EC50): 50.8 µg/mL (≈ 94.3 µM)
HSV-1 SI (CC50/EC50) (HSV-1; HFF Cells): >5.6
EC50 (HSV-1; Human alphaherpesvirus 1, HFF, read-out: HSV-1 CPE Inhibition EC50): 17.9 µg/mL (≈ 33.2 µM)
HSV-2 SI (CC50/EC50) (HSV-2; HFF Cells): >2.1
EC50 (HSV-2; Human alphaherpesvirus 2, HFF, read-out: HSV-2 CPE Inhibition EC50): 48 µg/mL (≈ 89.1 µM)
VZV SI (CC50/EC50) (VZV; HFF Cells): <2.3
EC50 (VZV; Human alphaherpesvirus 3, HFF, read-out: VZV Plaque Reduction EC50): > 4 µg/mL
IC50 [21]: 74 µg/mL (≈ 137 µM)
IC50 [22]: ~35 µg/mL (≈ 65 µM)
EC50 (Hepatitis B Virus (HBV); read-out: EC50 (50% effective dose), HBV Virion, 2.2.15 cells, extracellular (virion) HBV DNA, 9 days treatment): > 100 µM
EC90 (Hepatitis B Virus (HBV); read-out: EC90 (90% effective dose), HBV Virion, 2.2.15 cells, extracellular (virion) HBV DNA, 9 days treatment): > 100 µM

O=C1CC(c2ccc(O)cc2)Oc2c1c(O)cc(O)c2C1C(=O)c2c(O)cc(O)cc2OC1c1ccc(O)cc1 (stereo not shown) [GB-1a(13), GB-1a]
IC50 (HIV-1 RT; [31]): 236 µM
IC50 (HIV-1 RT; [32]): 236 µM
inhibition at 200 µg/mL (HIV-1 RT): 86%
anti-HIV-1 activity in PBM cells (in words) (HIV-1 (strain LAV-1)): good activity
EC50 (HIV-1 (strain LAV-1)): 38 µM
Selective Index (SI) (HIV-1 (strain LAV-1); PBM cells): 2.3
IC50 [23]: 88 µM
toxicity against uninfected PHA-stimulated human PBM cells (in words) (human PBM cells): high toxicity

NC(=O)c1ncn([C@@H]2O[C@H](CO)[C@@H](O)[C@H]2O)n1 [Ribavirin, ribavirin, reference compound]
EC50 ([1]; H1N1, MDCK): 1.9 µg/mL (≈ 7.78 µM)
EC50 ([2]; H1N1, MDCK): 1.4 µg/mL (≈ 5.73 µM)
EC50 ([3]; H3N2, MDCK): 4.1 µg/mL (≈ 16.8 µM)
EC50 ([4]; H3N2, MDCK): 5.7 µg/mL (≈ 23.3 µM)
EC50 (Influenza B Panama/45/90 [5]): 1.5 µg/mL (≈ 6.14 µM)
EC50 (Influenza B Panama/45/90 [24]): 0.48 µg/mL (≈ 1.97 µM)
EC50 (Measles Virus [6]; BSC-1, read-out: CPI Inhibition EC50): 3 µg/mL (≈ 12.3 µM)
EC50 (Measles Virus [7]): 1 µg/mL (≈ 4.09 µM)
EC50 ([10]; MA104, read-out: CPI Inhibition EC50): 25 µg/mL (≈ 102 µM)
EC50 [11]: 17 µg/mL (≈ 69.6 µM)
EC50 ([12]; human respiratory syncytial virus, MA104, read-out: CPE Inhibition EC50): 12 µg/mL (≈ 49.1 µM)
EC50 [13]: 6 µg/mL (≈ 24.6 µM)
inhibition of the infection, in words ([25]; ribavirin 75 mg/kg/day, positive control): highly active
Infected, Treated MST [25, 33]: >21.0** days
Infected, Treated Mean SaO2 [25, 33]: 87.1** %
Infected, Treated Surv/Total [25, 33]: 10/10**
CPE Inhibition IC50 (cytotoxic) ([14]; dog): >1000 µg/mL
IC50 (in vitro [15]; CPE Inhibition IC50 (50% cell inhibitory (cytotoxic) concentration)): 562 µg/mL (≈ 2300 µM)
IC50 (in vitro [15]; [34]): 562 µg/mL (≈ 2300 µM)
IC50 (in vitro [26]): 150 µg/mL (≈ 614 µM)
IC50 (in vitro [27]): 150 µg/mL (≈ 614 µM)
IC50 (in vitro [28]; [34]): 120 µg/mL (≈ 491 µM)
IC50 (in vitro [28]; CPI Inhibition IC50 (cytotoxic)): 245 µg/mL (≈ 1000 µM)
